Tests used:
[1] = target: T1, CYP2C9 (Homo sapiens, UniProt P11712); test: Cytochrome P450 inhibition assay, CYP2C9; type: in vitro ADME; conditions: pooled human liver microsomes, probe Diclofenac
T1 construct: from tissue; host or cells: pooled human liver microsomes
Description: (§1) The susceptibility of Compounds (2) and (3) to potential drug-drug interactions was tested by assaying their abilities to inhibit various cytochrome P450 isoforms. Prior art Compound B (see Example 3 above) was also tested as a comparative example. Test compounds, prepared and serially diluted in DMSO, were incubated at six concentrations (1% DMSO final) with pooled human liver microsomes in the presence of probe substrate for each isoform, and their effects on the metabolism of probe substrates determined. Incubations (in 96-well plates) were carried out at 37° C. in 0.1 M Tris buffer, pH 7.4, with reactions initiated by the addition of cofactor, NADPH (1 mM final concentration). At the specified times, reactions were terminated with acetonitrile containing an analytical internal standard, samples were centrifuged and the supernatant fractions were analysed for probe substrate metabolites by mass spectrometry (LC-MS/MS). The instrument responses were normalised to internal standard and compared to the appropriate solvent controls to determine the amount of metabolite formed from the probe substrates relative to these “uninhibited” controls. […] [table]

[2] = target: JAK3 (Homo sapiens, UniProt P52333); test: JAK3 kinase inhibition assay (33P-ATP filter binding, Reaction Biology)
[3] = target: JAK1 (Homo sapiens, UniProt P23458); test: JAK1 kinase inhibition assay (33P-ATP filter binding, Reaction Biology)
[4] = Hepatocyte stability assay, mouse; type: in vitro ADME; conditions: male, CD-1, pooled hepatocytes, 37° C.
Description: Test and control compounds were incubated with hepatocytes at 37° C. Aliquots were removed at 6 timepoints over a one hour period. Samples were centrifuged and the supernatant fractions analysed for parent compound by mass spectrometry (LC-MS/MS).
The amount of compound remaining (expressed as %) was determined from the MS response in each sample relative to that in the T=0 samples, and used to determine the half-life and intrinsic clearance of the compound.

[5] = target: T2, CYP1A2 (Homo sapiens, UniProt P05177); test: Cytochrome P450 inhibition assay, CYP1A2; type: in vitro ADME; conditions: pooled human liver microsomes, probe Phenacetin
T2 sequence (P05177 1-516): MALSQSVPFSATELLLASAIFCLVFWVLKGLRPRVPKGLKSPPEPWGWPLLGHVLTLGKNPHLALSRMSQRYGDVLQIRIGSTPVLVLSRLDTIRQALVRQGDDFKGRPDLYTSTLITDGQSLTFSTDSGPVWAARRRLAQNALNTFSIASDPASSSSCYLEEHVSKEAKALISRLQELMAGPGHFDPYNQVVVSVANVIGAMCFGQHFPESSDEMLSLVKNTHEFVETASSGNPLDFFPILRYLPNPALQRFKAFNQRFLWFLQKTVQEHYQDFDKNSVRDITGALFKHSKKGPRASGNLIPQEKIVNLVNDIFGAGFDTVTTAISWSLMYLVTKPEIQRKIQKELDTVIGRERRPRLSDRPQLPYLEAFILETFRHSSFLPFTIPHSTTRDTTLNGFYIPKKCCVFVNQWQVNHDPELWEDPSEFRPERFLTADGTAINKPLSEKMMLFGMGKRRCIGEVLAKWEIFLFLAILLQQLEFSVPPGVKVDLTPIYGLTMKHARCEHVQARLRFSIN
Description: as §1

[6] = system: pSTAT3 in HT29 cells; test: pSTAT3 inhibition in response to IL-22 stimulation in serum starved HT29 cells; type: cell-based; conditions: for inhibition at 10 µM: HT-29, HT29 cells, 10 ng/ml human IL-22, 10 μM compound; for IC50: Homo sapiens, HT-29, HT29 cells, 10 ng/ml human IL-22
Description: HT29 cells were serum starved overnight before the four test compounds were diluted to generate a 9-point semi-log dose dilution with a top concentration of 10 μM, plus vehicle control. HT29 cells were incubated with the test compounds for 20 min at 37° C. HT29 cells were incubated for a further 15 min with 10 ng/ml human IL-22 before cells were fixed with 4% PFA for 10 min, and 90% methanol for 30 min before being labelled with a phospho-STAT3Y705 antibody (CST #9145). Cells were rinsed three times using 0.5% BSA/PBS solution before being incubated with Alexa-488 anti-rabbit secondary antibodies.
Mean fluorescence intensity of phospho-STAT3 in single cells was analysed by flow cytometry using an Intellicyt iQue instrument and FlowJo software. The IC50 was determined using a four-parameter analysis following removal of background signal and normalisation to the DMSO control.

[7] = target: T3, CYP2C8 (Homo sapiens, UniProt P10632); test: Cytochrome P450 inhibition assay, CYP2C8; type: in vitro ADME; conditions: pooled human liver microsomes, probe Amodiaquine
T3 construct: from tissue; host or cells: pooled human liver microsomes
T3 sequence (P10632 1-490): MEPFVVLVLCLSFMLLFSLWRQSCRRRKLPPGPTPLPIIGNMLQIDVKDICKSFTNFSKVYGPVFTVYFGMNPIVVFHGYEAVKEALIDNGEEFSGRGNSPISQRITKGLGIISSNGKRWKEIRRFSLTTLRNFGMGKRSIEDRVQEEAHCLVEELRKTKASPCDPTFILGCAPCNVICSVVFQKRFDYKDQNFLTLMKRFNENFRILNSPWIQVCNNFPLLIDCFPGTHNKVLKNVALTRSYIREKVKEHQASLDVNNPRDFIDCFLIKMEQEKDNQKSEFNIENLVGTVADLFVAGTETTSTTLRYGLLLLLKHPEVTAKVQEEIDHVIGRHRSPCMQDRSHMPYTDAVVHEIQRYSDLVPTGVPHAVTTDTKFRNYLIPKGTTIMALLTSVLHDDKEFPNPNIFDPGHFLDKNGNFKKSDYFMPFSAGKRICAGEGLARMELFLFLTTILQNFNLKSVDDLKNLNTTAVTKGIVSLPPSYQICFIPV
Description: as §1

[8] = target: T4, CYP2D6 (Homo sapiens, UniProt P10635); test: Cytochrome P450 inhibition assay, CYP2D6; type: in vitro ADME; conditions: pooled human liver microsomes, probe Dextromethorphan
T4 construct: from tissue; host or cells: pooled human liver microsomes
Description: as §1

T4 sequence (P10635 whole entry): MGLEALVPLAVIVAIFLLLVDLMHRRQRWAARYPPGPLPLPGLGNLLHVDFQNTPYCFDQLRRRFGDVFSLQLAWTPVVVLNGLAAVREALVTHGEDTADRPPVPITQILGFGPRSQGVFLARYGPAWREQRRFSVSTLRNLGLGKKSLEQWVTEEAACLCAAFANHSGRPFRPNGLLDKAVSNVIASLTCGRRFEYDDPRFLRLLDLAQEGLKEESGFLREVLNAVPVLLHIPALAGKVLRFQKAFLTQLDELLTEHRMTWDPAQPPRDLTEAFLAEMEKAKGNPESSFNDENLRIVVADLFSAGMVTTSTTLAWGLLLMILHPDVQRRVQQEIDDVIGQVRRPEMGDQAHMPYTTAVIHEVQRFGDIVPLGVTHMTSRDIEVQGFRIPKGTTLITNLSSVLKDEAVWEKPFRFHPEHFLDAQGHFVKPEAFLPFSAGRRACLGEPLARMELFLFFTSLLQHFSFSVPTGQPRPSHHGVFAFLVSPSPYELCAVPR
Sequence of JAK1 (P23458 866-1154): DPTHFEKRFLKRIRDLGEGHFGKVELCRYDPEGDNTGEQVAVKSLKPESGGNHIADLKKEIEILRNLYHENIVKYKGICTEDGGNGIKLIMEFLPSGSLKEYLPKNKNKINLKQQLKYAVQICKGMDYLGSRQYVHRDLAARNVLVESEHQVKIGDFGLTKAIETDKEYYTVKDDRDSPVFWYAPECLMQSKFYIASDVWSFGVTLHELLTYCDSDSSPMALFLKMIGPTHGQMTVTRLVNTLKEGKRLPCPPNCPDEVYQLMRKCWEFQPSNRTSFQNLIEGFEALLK
T1 sequence (P11712 whole entry): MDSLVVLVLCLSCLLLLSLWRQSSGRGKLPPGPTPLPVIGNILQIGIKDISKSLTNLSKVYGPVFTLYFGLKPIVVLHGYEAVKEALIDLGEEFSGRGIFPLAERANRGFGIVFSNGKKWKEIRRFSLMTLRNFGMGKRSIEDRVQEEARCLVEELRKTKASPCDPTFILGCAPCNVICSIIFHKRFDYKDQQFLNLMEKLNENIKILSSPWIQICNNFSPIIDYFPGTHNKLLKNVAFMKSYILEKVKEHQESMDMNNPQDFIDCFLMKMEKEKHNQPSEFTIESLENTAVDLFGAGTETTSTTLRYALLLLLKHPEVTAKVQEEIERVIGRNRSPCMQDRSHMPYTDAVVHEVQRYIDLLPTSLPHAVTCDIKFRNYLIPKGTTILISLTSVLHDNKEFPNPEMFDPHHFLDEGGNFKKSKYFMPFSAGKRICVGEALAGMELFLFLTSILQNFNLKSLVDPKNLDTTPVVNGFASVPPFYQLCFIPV
Sequence of JAK3 (P52333 781-1124): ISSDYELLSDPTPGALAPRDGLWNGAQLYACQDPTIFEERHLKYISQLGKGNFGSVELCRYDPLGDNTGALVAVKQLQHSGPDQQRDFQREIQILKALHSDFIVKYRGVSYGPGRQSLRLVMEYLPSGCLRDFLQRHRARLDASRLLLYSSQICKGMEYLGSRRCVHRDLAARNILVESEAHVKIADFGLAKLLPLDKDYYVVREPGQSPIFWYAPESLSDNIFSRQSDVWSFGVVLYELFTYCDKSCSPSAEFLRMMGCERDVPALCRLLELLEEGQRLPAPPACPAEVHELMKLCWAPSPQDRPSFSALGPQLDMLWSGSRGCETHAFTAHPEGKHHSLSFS

| Compound | IC50 [1] | IC50 [2] | IC50 [3] | hepatocyte CLint [4] | IC50 [5] | inhibition at 10 µM [6] | IC50 [6] | IC50 [7] | IC50 [8] | selectivity for TYK2 compared to JAK3 ([2]; biochemical assays) | Selectivity v TYK2: JAK3 ([2]; ratio of JAK3 IC50 to TYK2 IC50) | Selectivity v TYK2: JAK1 ([3]; ratio of JAK1 IC50 to TYK2 IC50) | half-life ([4]; read-out: Mouse T1/2) |
| --- | --- | --- | --- | --- | --- | --- | --- | --- | --- | --- | --- | --- | --- |
| NC(=O)c1nc(-c2c(Cl)cccc2Cl)oc1Nc1ccc(C(=O)N2CCOCC2)cc1 [Comparative Compound B, 2-(2,6-dichloro-phenyl)-5-[4-(morpholine-4-carbonyl)-phenylamino]-oxazole-4-carboxylic acid amide, reference compound] | 4.4 µM | 271 nM | 26 nM | 40.5 µL/min/1e6 cells | > 30 µM | 97.9% | < 100 nM | > 8.2 µM | > 30 µM | – | – | – | – |
| NC(=O)c1nc(-c2c(Cl)cccc2Cl)oc1Nc1ccc(C(=O)N2CCS(=O)(=O)CC2)cc1 [Compound (2)] | 26 µM | 212 nM | 20 nM | 16.8 µL/min/1e6 cells | > 30 µM | 95.9% | – | > 30 µM | > 30 µM | – | – | – | – |
| NC(=O)c1nc(-c2c(Cl)cccc2Cl)oc1Nc1ccc(C(=O)N2CCS(=O)(=O)CC2)c(F)c1 [Compound (3)] | > 30 µM | 772 nM | 51 nM | 28 µL/min/1e6 cells | > 30 µM | 95.9% | 231 nM | > 30 µM | > 30 µM | ~164 fold | 164.3 | 10.9 | 39.2 min |
